# Patent US20260374818A1, “CATIONIC PEPTIDES WITH BROAD SPECTRUM ACTIVITY” (priority 2023, published 2026)
# Where a SMILES comes first, the peptide text is derived from it. [ ]: non-standard residue; d: D form.
# Key:
# PAO1 preformed biofilms = conditions: for IC50: read-out: Biofilm Eradication IC50, PAO1, 24-hr preformed biofilms treated overnight, TTC
# [1] = system: peripheral blood mononuclear cells (PBMCs); assay: Cytotoxicity (LDH release), PBMCs
# [2] = Peptide aggregation in RPMI + 10% FBS with PBMCs (microscopy); type: physicochemical; conditions: 50 μg/ml, overnight
# Description: Peptide Aggregation: Peptide aggregation was assessed qualitatively by examining samples of peptides mixed with PBMCs following overnight incubation at 37 °C and 5% CO2. All samples were prepared in RPMI media containing 10% FBS the same manner as the cytotoxicity assays described above. Visualization of aggregates was done using a Nikon Eclipse TS100 Inverted Microscope at 10× magnification.
# In aggregation studies, peptides were added to PBMCs in RPMI media containing 10% FBS and incubated overnight at 37 °C in 5% CO2.
# The peptides were also evaluated for their tendency to aggregate when added to RPMI tissue culture media containing 10% fetal bovine serum in the presence of PBMCs. Peptides were added to PBMCs in RPMI media containing 10% FBS and incubated overnight at 37 °C in 5% CO2. […] Compared to a highly aggregation prone peptide, 1018 [Haney, E. F., et al. (2017). Aggregation and its influence on the immunomodulatory activity of synthetic innate defense regulator peptides.
# As with the DJK-5 derivatives above, the AB103-D derivatives were evaluated for their tendency to aggregate when added to RPMI tissue culture media containing 10% fetal bovine serum in the presence of PBMCs. Peptides were added to PBMCs in RPMI media containing 10% FBS and incubated overnight at 37 °C in 5% CO2.
# [3] = system: MRSA biofilms on N/TERT epithelial skin; assay: Skin organoid biofilm model, peptide-loaded collagen dressings, MRSA; type: cell-based, methicillin resistant Staphylococcus aureus; conditions: compared to DJK-5 and ciprofloxacin
# [4] = system: P. aeruginosa PAO1 biofilms; conditions: for IC50: read-out: Biofilm Inhibition IC50, PAO1, 24 hours
# N/TERT keratinocytes = assay: Cytotoxicity (LDH release), N/TERT keratinocytes
# [5] = system: P. aeruginosa biofilms on N/TERT epithelial skin; assay: Skin organoid biofilm model, peptide-loaded collagen dressings, P. aeruginosa; type: cell-based, Pseudomonas aeruginosa; conditions: compared to DJK-5 and ciprofloxacin
# [6] = system: 3-day-old oral plaque (multispecies) biofilms; assay: Oral plaque biofilm model, long-term (1-3 days) exposure, dead cell volume; type: cell-based; conditions: daily for 3 days, compared to DJK5 (FIG. 16A)
# [7] = system: MRSA biofilms on human skin organoid; assay: Skin organoid biofilm infection model, peptide solution, MRSA; type: cell-based, methicillin resistant Staphylococcus aureus; conditions: peptide solution 4 hrs (FIG. 3A)
# P. aeruginosa LESB58 [8] = assay: Murine model of abscess infections; type: in vivo, murine; Pseudomonas aeruginosa
# [9] = system: human bronchiolar epithelial cells (HBEs); assay: Cytotoxicity (LDH release), human bronchiolar epithelial cells
# MRSA preformed biofilms = assay: Biofilm eradication of 24-hr preformed biofilms (TTC metabolic dye), MRSA; type: cell-based, methicillin resistant Staphylococcus aureus; conditions: 24-hr preformed biofilms treated overnight
# [10] = system: PAO1 biofilms on human skin organoid; assay: Skin organoid biofilm infection model, peptide solution, PAO1; type: cell-based, Pseudomonas aeruginosa; conditions: peptide solution 4 hrs (FIG. 3B)
# MRSA USA300 biofilms = assay: Biofilm inhibition by >95% pure peptides (crystal violet), MRSA; type: cell-based, methicillin resistant Staphylococcus aureus; conditions: for IC50: MRSA, 24 hours
# MRSA USA300 = assay: Murine sinusitis model, MRSA; type: in vivo, mouse; methicillin resistant Staphylococcus aureus; conditions: MRSA USA300, 0.1 mg dose, compared to DJK5
# Source text: (§1) FIGS. 15A-15I show peptides AB101-D, AB102-D and AB103-D compared to DJK5 in a murine sinusitis model of bacterial infections. MRSA USA300, nasal cavity (FIG. 15A) P. aeruginosa LESB58 (FIG. 15B and FIG. 15C, nasal cavity); MRSA USA300, lung tissue (FIG. 15D) P. aeruginosa LESB58 (FIG. 15E and FIG. 15F, lung tissue); and MRSA USA300, weight change (FIG. 15G) P. aeruginosa LESB58 (FIG. 15H and FIG. 15I, weight change).
# (§2) A murine sinusitis model of bacterial infections in the nasal cavity of mice [Alford et al. (2021). Murine model of sinusitis infection for screening antimicrobial and immunomodulatory therapies. Frontiers in Cellular and Infection Microbiology., 11, 621081] was used to determine the efficacy of D-amino acid peptides AB101-D, AB102-D and AB103-D compared to DJK5. […]. Treatment was applied either as dropwise administration of a peptide solution (20 μl) to the infected naris of a mouse (FIGS. 15A, 15B, 15D, 15E, 15G, 15H) or peptide was delivered using a Respimat® inhaler device (FIGS. 15C, 15F, 15I). Mice were monitored and weighed once daily for up to three days then euthanized prior to collection of nasal lavage fluid and lung tissue for bacterial enumeration. The limit of detection is shown by the dotted line at log CFU=2. […] Accordingly, the results indicated enhanced efficacy of D-amino acid peptides AB101-D, AB102-D and AB103-D compared to DJK5 in this murine model.
# P. aeruginosa LESB58 [11] = assay: Murine sinusitis model, P. aeruginosa; type: in vivo, mouse; Pseudomonas aeruginosa; conditions: P. aeruginosa LESB58, 0.1 mg dose, compared to DJK5
# Source text: as §1, §2
# [12] = system: P. aeruginosa PAO1 planktonic cells; assay: Planktonic growth inhibition by pure AB103-D derivatives, P. aeruginosa; type: cell-based, Pseudomonas aeruginosa
# Description: (§3) The effect of peptide on bacterial and biofilm growth was assessed using the biofilm inhibition assay [Haney, E. F., Trimble, M. J., & Hancock, R. E. W. (2021) FIGS. 20A-20D. Microtiter plate assays to assess antibiofilm activity against bacteria. Nature Protocols, 16(5), 2615-2632]. The effect of peptide on planktonic growth and biofilm growth of MRSA USA300 (FIG. 20A, FIG. 20C) and P. aeruginosa PAO1 (FIGS. 20B, 20D) was assessed and compared to the activity seen for AB103-D (gray stars) and DJK5 (gray open circles). Data shown are the average of three biological replicates. Error bars have been omitted for clarity. […]. The results indicated enhanced antibiofilm and antibacterial activity of AB103-D derivatives compared to DJK5.
# [13] = system: MRSA USA300 planktonic cells; assay: Planktonic growth inhibition by pure AB103-D derivatives, MRSA; type: cell-based, methicillin resistant Staphylococcus aureus
# Description: as §3
# [14] = system: P. aeruginosa PAO1 biofilms; assay: Biofilm inhibition by SPOT-synthesized AB103-D variants (crystal violet), P. aeruginosa; type: cell-based, Pseudomonas aeruginosa; conditions: P. aeruginosa PAO1, SPOT peptides
structure (smiles),measurement,setting,value
"CC[C@@H](C)[C@@H](NC(=O)[C@@H](CCCNC(=N)N)NC(=O)[C@H](N)CCCCN)C(=O)N[C@H](CCCNC(=N)N)C(=O)N[C@H](Cc1c[nH]c2ccccc12)C(=O)N[C@@H](C(=O)N[C@@H](C(=O)N[C@H](CC(C)C)C(=O)N[C@H](CCCNC(=N)N)C(=O)N[C@@H](C(=O)N[C@@H](C(=O)N[C@H](CCCNC(=N)N)C(N)=O)[C@H](C)CC)C(C)C)[C@H](C)CC)C(C)C [AB101-D, krirwvilrvir-NH2] (H-[dK][dR][dI][dR][dW][dV][dI][dL][dR][dV][dI][dR]-NH2)",Enhanced antibiofilm eradication activity,"PAO1 preformed biofilms; P. aeruginosa, compared with DJK5",> 2 fold
same,IC50,PAO1 preformed biofilms,1900 nM
same,Cytotoxicity (LDH),[1],low toxicity
same,Peptide aggregation,[2],some small aggregates
same,Antibiofilm activity from collagen dressing,[3],clearly superior activity to both DJK-5 and ciprofloxacin
same,Biofilm inhibition activity compared to DJK5,[4]; P. aeruginosa,≥ 4 fold
same,IC50,[4]; crystal violet,1100 nM
same,Cytotoxicity (LDH),N/TERT keratinocytes,low toxicity
same,Antibiofilm activity from collagen dressing,[5],clearly superior activity to both DJK-5 and ciprofloxacin
same,Proportion of dead biofilm cells,[6]; 10 μg/ml,superior to DJK5 at killing bacteria cells
same,Proportion of dead biofilm cells,[6]; 1 or 5 μg/ml,killed more of the biofilm cells
same,Antibiofilm activity on skin organoid,[7],excellent antibiofilm activity
same,Abscess size,P. aeruginosa LESB58 [8],reduced abscess size
same,Cytotoxicity (LDH),[9],low toxicity
same,IC50,MRSA preformed biofilms,1400 nM
same,Antibiofilm activity on skin organoid,[10],excellent antibiofilm activity
same,IC50,MRSA USA300 biofilms,270 nM
"CC[C@@H](C)[C@@H](NC(=O)[C@@H](CCCNC(=N)N)NC(=O)[C@@H](CCCCN)NC(=O)[C@@H](CCCNC(=N)N)NC(=O)[C@H](NC(=O)[C@H](NC(=O)[C@@H](CCCNC(=N)N)NC(=O)[C@H](NC(=O)[C@H](N)CCCNC(=N)N)C(C)C)C(C)C)[C@H](C)CC)C(=O)N[C@H](CCCNC(=N)N)C(=O)N[C@H](Cc1c[nH]c2ccccc12)C(=O)N[C@@H](C(N)=O)C(C)C [AB102-D, rvrvirkrirwv-NH2] (H-[dR][dV][dR][dV][dI][dR][dK][dR][dI][dR][dW][dV]-NH2)",IC50,PAO1 preformed biofilms,23000 nM
same,Bacteria in nasal cavity and lungs,MRSA USA300,reduced the amount of bacteria in the nasal cavity and lungs of mice much more than DJK5 treatment
same,Cytotoxicity (LDH),[1],low toxicity
same,Peptide aggregation,[2],No appreciable aggregation
same,IC50,[4]; crystal violet,16500 nM
same,Cytotoxicity (LDH),N/TERT keratinocytes,low toxicity
same,Bacteria in nasal cavity and lungs,P. aeruginosa LESB58 [11],reduced the amount of bacteria in the nasal cavity and lungs of mice much more than DJK5 treatment
same,Proportion of dead biofilm cells,[6]; 1 or 5 μg/ml,killed more of the biofilm cells
same,Antibiofilm activity on skin organoid,[7],excellent antibiofilm activity
same,Cytotoxicity (LDH),[9],low toxicity
same,IC50,MRSA preformed biofilms,3700 nM
same,Antibiofilm activity on skin organoid,[10],excellent antibiofilm activity
same,IC50,MRSA USA300 biofilms,150 nM
"CC[C@@H](C)[C@@H](NC(=O)[C@@H](CCCNC(=N)N)NC(=O)[C@@H](CCCNC(=N)N)NC(=O)[C@@H](Cc1c[nH]c2ccccc12)NC(=O)[C@@H](CCC(N)=O)NC(=O)[C@H](NC(=O)[C@@H](CCCNC(=N)N)NC(=O)[C@H](NC(=O)[C@H](NC(=O)[C@@H](CCCNC(=N)N)NC(=O)[C@H](NC(=O)[C@H](N)CCCNC(=N)N)C(C)C)C(C)C)[C@H](C)CC)C(C)C)C(N)=O [AB113-D, rvrvirvqwrri] (H-[dR][dV][dR][dV][dI][dR][dV][dQ][dW][dR][dR][dI]-NH2)",Biofilm growth inhibition,[4]; P. aeruginosa PAO1 (FIG. 20D),among the most active
same,minimum inhibitory concentration of peptide that inhibited at least 90% of biofilm growth (MBIC90),"[4]; P. aeruginosa PAO1 biofilms, >95% pure peptides, crystal violet, BM2 minimal media",2 µM
same,More active than AB103-D against PAO1 biofilms,"[4]; PAO1, >95% pure peptides",up to 4 fold
same,Planktonic growth inhibition,[12],among the most active
same,Planktonic growth inhibition,[13],among the most active against planktonic cells
same,Activity against PAO1 biofilms compared to AB103-D,[14],activity superior to that of AB103-D
same,minimum inhibitory concentration of peptide that inhibited at least 90% of biofilm growth (MBIC90),"MRSA USA300 biofilms; MRSA USA300 biofilms, >95% pure peptides, 10% TSB + 0.1% glucose",0.5 µM
